Here are results for 1 compound from ChEMBL document CHEMBL3638579, “Arylamino purine derivatives, preparation method and pharmaceutical use thereof” (2015).

Structures are written as SMILES.

For the experiment, the target named is Vascular endothelial growth factor receptor 2 (Homo sapiens, UniProt P35968). Description: Inhibition Assay: The object of this assay was to test the inventive compounds for the kinase inhibitory activity in vitro. In this assay, an isotopic labeling method was used to label the gamma phosphate group on ATP. EGFR (including wild type, L858R mutant type and L858R/T790M double mutant type), VEGFR2, ALK, BTK, c-KIT, c-SRC, MET, PDGFRalpha and FLT3 kinases were tested in vitro for the activity inhibition. Staurosporine was used as a reference molecule (or referred to as a positive control). […] The IC50 value can be obtained by the calculation of the inhibitory rates at a series of different concentrations of the tested compounds. 1. Materials: 20mM 3-(N-morpholinyl)propylsulfonic acid (MOPS); 1mM Ethylenediaminetetraacetic acid (EDTA); 0.01% Polyethylene glycol lauryl ether (Brij-35).
Vascular endothelial growth factor receptor 2, sequence (P35968 20-1356 limits assumed, stated change not applied): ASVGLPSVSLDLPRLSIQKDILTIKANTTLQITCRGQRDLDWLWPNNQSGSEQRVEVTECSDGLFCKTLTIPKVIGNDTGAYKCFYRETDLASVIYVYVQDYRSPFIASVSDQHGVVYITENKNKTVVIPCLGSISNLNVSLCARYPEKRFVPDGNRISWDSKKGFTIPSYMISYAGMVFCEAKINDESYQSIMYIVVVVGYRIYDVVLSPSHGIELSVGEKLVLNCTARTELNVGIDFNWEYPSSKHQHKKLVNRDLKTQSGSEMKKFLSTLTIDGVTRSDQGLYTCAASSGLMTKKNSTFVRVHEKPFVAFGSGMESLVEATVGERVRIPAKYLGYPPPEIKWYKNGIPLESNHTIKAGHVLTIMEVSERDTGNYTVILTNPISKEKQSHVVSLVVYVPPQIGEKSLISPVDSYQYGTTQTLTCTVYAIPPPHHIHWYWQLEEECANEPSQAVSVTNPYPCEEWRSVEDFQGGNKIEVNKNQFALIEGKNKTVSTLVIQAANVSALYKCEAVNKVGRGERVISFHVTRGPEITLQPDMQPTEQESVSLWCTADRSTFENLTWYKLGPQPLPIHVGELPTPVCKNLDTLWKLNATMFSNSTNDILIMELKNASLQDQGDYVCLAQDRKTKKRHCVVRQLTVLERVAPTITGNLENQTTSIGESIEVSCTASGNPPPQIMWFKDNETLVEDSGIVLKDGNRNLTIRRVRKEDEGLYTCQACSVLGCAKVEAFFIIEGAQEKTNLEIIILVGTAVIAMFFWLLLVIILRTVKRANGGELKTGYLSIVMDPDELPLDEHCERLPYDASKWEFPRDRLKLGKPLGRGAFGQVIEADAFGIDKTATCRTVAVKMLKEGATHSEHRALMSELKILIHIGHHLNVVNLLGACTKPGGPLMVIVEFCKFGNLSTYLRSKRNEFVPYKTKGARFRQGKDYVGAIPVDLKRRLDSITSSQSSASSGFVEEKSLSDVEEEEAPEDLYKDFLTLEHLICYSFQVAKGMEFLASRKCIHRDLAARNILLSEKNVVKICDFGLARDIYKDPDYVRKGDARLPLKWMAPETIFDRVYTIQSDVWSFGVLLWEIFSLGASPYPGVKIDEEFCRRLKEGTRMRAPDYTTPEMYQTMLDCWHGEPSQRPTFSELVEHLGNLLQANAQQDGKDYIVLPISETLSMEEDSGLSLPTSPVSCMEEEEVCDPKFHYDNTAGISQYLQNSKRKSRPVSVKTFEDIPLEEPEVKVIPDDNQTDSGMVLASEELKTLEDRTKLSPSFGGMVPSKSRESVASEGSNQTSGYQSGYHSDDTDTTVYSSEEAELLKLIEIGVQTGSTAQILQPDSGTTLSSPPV

Turning to `CC(C)n1c(Nc2ccccc2)nc2cnc(Nc3ccc(C(=O)NN4CCN(C)CC4)cc3F)nc21`, the IC50 – broadly, the concentration that gives 50% inhibition – was more than 1000 nM.
